Measured values published in patent US20230113609A1, “SSTR5 ANTAGONISTS” (Kallyope, Inc., priority 2019, published 2023).
pIC50: −log10 of the molar value.

Biological target: T1, human SSTR5 (Homo sapiens, UniProt P35346)
T1 construct: expressed in transfected cells
Assay: Inositol phosphate accumulation assay (IP1 HTRF, antagonist mode)
Format: cell-based
Conditions: CHO-K1 cells co-expressing human SSTR5 with Gqi5, SST28 agonist at concentration generating 90% of full activation
From the text: CHO-K1 cells stably co-expressing human SSTR5 with Gqi5 were developed using Jump-In technology from Thermo-Fisher. Gqi5 is the mouse G alpha q protein, that was modified to interact with Gi-coupled GPCRs as described previously (Coward, P.; Chan, S. D.; Wada, H. G.; Humphries, G. M.; Conklin, B. R. Chimeric G proteins Allow a High-Throughput Signaling Assay of Gi-Coupled Receptors. Anal Biochem. 1999, 270(2),242-248).
Co-expression of Gqi5 with SSTR5 allowed monitoring of SSTR5 activity by following IP1 accumulation. The assay was performed in a 384-well plate format using the IP1 assay kit from Cis-Bio in an antagonist mode, i.e., pre-incubation with antagonist following by receptor activation by agonist at a concentration generating 90% of full activation. Frozen cells expressing human SSTR5 were thawed, washed, and then plated in DMEM supplemented with 10% FBS and non-essential amino acids. 40 μL of 2.5×10^5 cells/mL were plated on a Poly D-Lysine coated 384-well white plate. The cells were then incubated for 16 hr. at 37° C/5% CO2. After 16 hour the medium was removed, and 10 μL of stimulation buffer was added to the cells. Test compounds were dissolved in DMSO at concentrations 2000-fold that of the final assay concentrations. 7.5 nLcompound solutions were transferred to the cell plates using a Labcyte Echo® acoustic liquid handler. The plates were then incubated for 15 minutes at 37° C/5%CO2. After the first incubation, 5 μL of 30 nM SST28 were added to the cells, and the cells were incubated for 90 minutes at 37° C/5%CO2. 5 μL of detection buffer (prepared as described in the IP-1 kit) was added to each well, and the plates were incubated at RT for 1 hour.
TR-FRET was measured using a ClarioSTAR plate reader, calculating the ratio between emissions at 665 nm and 620 nm (HTRF ratio). The HTRF ratio for positive (Max) and negative (Min) controls were used to normalize HTRF data and generate values for % inhibition. IC50 and maximal inhibition values were determined using a standard 4-parameter fit.

T1 sequence (P35346 whole entry): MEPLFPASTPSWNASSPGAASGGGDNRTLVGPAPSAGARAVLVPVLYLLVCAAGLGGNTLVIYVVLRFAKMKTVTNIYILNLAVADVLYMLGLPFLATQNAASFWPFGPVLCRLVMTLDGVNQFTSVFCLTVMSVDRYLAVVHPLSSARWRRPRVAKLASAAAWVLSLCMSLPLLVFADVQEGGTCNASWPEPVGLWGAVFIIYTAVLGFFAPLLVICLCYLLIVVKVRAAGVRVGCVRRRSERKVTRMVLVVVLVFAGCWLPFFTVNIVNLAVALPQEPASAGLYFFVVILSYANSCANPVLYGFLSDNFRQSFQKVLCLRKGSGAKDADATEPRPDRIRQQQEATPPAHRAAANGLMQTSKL

SMILES | pIC50
CCOc1cc(C(=O)OC)c(C2CC2)cc1CN1CCN(C(=O)Oc2ccc(C(=O)NC[C@H](O)[C@@H](O)[C@H](O)[C@H](O)CO)cc2)CC1 [Example 96] | 6.00 to 7.00
CCOc1cc(-c2ccc(F)cc2)c(C2CC2)cc1CN1CCC2(CC1)CN(c1ccc(C(=O)NCCCS(=O)(=O)O)cc1)C(=O)N2 [Example 66, 3-(4-(8-((2-cyclopropyl-5-ethoxy-4′-fluoro-[1,1′-biphenyl]-4-yl)methyl)-2-oxo-1,3,8-triazaspiro[4.5]decan-3-yl)benzamido)propane-1-sulfonic acid] | ≥ 7.00
CCOc1cc(C(=O)OC)c(C2CC2)cc1CN1CCN(C(=O)Oc2ccc(C(=O)N3CC(CNC[C@H](O)[C@@H](O)[C@H](O)[C@H](O)CO)C3)cc2)CC1 [Example 99, 4-(3-((((2S,3R,4R,5R)-2,3,4,5,6-pentahydroxyhexyl)amino)methyl)azetidine-1-carbonyl)phenyl 4-(5-cyclopropyl-2-ethoxy-4-(methoxycarbonyl)benzyl)piperazine-1-carboxylate] | 6.00 to 7.00
CCOc1cc(CN2CCC3(CC2)CN(c2ccc(C(=O)NC[C@H](O)[C@@H](O)[C@H](O)[C@H](O)COC(=O)CCC(=O)O)cc2)C(=O)O3)cc(OCC)c1-c1ccc(F)cc1 [Example 2, 4-(((2R,3R,4R,5S)-6-(4-(8-((2,6-diethoxy-4′-fluoro-[1,1′-biphenyl]-4-yl)methyl)-2-oxo-1-oxa-3,8-diazaspiro[4.5]decan-3-yl)benzamido)-2,3,4,5-tetrahydroxyhexyl)oxy)-4-oxobutanoic acid] | 6.00 to 7.00
CCOc1cc(-c2ccc(F)cc2)c(C2CC2)cc1CN1CCN(C(=O)Oc2ccc(C(=O)NC[C@H](O)[C@@H](O)[C@H](O)[C@H](O)CO)cc2)CC1 [compound 94] | ≥ 7.00
CCOc1cc(CN2CCC3(CC2)CN(c2ccc(C(=O)NCCCC(=O)NCCO)cc2)C(=O)O3)cc(OCC)c1-c1ccc(F)cc1 [compound 1, 4-(8-((2,6-diethoxy-4′-fluoro-[1,1′-biphenyl]-4-yl)methyl)-2-oxo-1-oxa-3,8-diazaspiro [4.5]decan-3-yl)-N-(4-((2-hydroxyethyl)amino)-4-oxobutyl)benzamide] | 6.00 to 7.00
CCOc1cc(-c2ccc(F)cc2F)c(C2CC2)cc1CN1CCC2(CC1)CN(c1ccc(C(=O)NCCOCCO)cc1)C(=O)N2 [Example 72, 4-(8-((2-cyclopropyl-5-ethoxy-2′,4′-difluoro-[1,1′-biphenyl]-4-yl)methyl)-2-oxo-1,3,8-triazaspiro[4.5]decan-3-yl)-N-(2-(2-hydroxyethoxy)ethyl)benzamide] | ≥ 7.00
CCOc1cc(CN2CCC3(CC2)CN(c2ccc(C(=O)NC[C@H](O)[C@@H](O)[C@H](O)[C@H](O)CO)cc2)C(=O)O3)cc(OCC)c1-c1ccc(F)cc1 [Example 4, 4-(8-((2,6-diethoxy-4′-fluoro-[1,1′-biphenyl]-4-yl)methyl)-2-oxo-1-oxa-3,8-diazaspiro[4.5]decan-3-yl)-N-((2S,3R,4R,5R)-2,3,4,5,6-pentahydroxyhexyl)benzamide] | 6.00 to 7.00
CCOc1cc(C(=O)OC)c(C2CC2)cc1CN1CCC2(CC1)CC(=O)N(c1ccc(C(=O)NCCCCS(N)(=O)=O)cc1)C2 [Example 51, methyl 2-cyclopropyl-5-ethoxy-4-((3-oxo-2-(4-((4-sulfamoylbutyl)carbamoyl)phenyl)-2,8-diazaspiro[4.5]decan-8-yl)methyl)benzoate] | 6.00 to 7.00
CCOc1cc(-c2ccc(F)cc2)c(C2CC2)cc1CN1CCC2(CC1)CN(c1ccc(C(=O)NCCOCCO)cc1)S(=O)(=O)N2 [compound 87, 4-(8-((2-cyclopropyl-5-ethoxy-4′-fluoro-[1,1′-biphenyl]-4-yl)methyl)-2,2-dioxido-2-thia-1,3,8-triazaspiro [4.5]decan-3-yl)-N-(2-(2-hydroxyethoxy)ethyl)benzamide] | ≥ 7.00
CCOc1cc(-c2ccc(F)cn2)c(C2CC2)cc1CN1CCC2(CC1)CN([C@H]1CC[C@](C)(C(=O)NCCCS(=O)(=O)O)CC1)C(=O)O2 [compound 91] | ≥ 7.00
CCOc1cc(C(=O)OC)c(C2CC2)cc1CN1CCC2(CC1)CC(=O)N(c1ccc(C(=O)NCCOCC[N+]34CCN(CC3)CC4)cc1)C2 [Example 45, 1-(2-(2-(4-(8-(5-cyclopropyl-2-ethoxy-4-(methoxycarbonyl)benzyl)-3-oxo-2,8-diazaspiro[4.5]decan-2-yl)benzamido)ethoxy)ethyl)-1,4-diazabicyclo[2.2.2]octan-1-ium] | < 5.30

Results, then the compound that gave them:

pIC50 | SMILES
≥ 7.00 | CCOc1cc(-c2ccc(F)cc2)c(C2CC2)cc1CN1CCC2(CC1)CN(c1ccc(C(=O)NC[C@H](O)[C@@H](O)[C@H](O)[C@H](O)CO)cc1)C(=O)O2 [Example 60, 4-(8-((2-cyclopropyl-5-ethoxy-4′-fluoro-[1,1′-biphenyl]-4-yl)methyl)-2-oxo-1-oxa-3,8-diazaspiro[4.5]decan-3-yl)-N-((2S,3R,4R,5R)-2,3,4,5,6-pentahydroxyhexyl)benzamide]
6.00 to 7.00 | CCOc1cc(CN2CCC3(CC2)CN(c2ccc(C(=O)N[C@@H](CC(=O)O)C(=O)O)cc2)C(=O)O3)cc(OCC)c1-c1ccc(F)cc1 [Example 9, (4-(8-((2,6-diethoxy-4′-fluoro-[1,1′-biphenyl]-4-yl)methyl)-2-oxo-1-oxa-3,8-diazaspiro[4.5]decan-3-yl)benzoyl)-L-aspartic acid]
< 5.30 | CCOc1cc(C(=O)OC)c(C2CC2)cc1CN1CCC2(CC1)CN(c1ccc(C(=O)NCCCNC(N)=O)cc1)C(=O)N2 [Example 77, methyl 2-cyclopropyl-5-ethoxy-4-((2-oxo-3-(4-((3-ureidopropyl)carbamoyl)phenyl)-1,3,8-triazaspiro[4.5]decan-8-yl)methyl)benzoate]
< 5.30 | CCOc1cc(C(=O)OC)c(C2CC2)cc1CN1CCC2(CC1)CC(=O)N(c1ccc(C(=O)N3C[C@H](O)[C@@H](O)C3)cc1)C2 [Example 43, methyl 2-cyclopropyl-4-((2-(4-((3S,4S)-3,4-dihydroxypyrrolidine-1-caibonyl)phenyl)-3-oxo-2,8-diazaspiro[4.5]decan-8-yl)methyl)-5-ethoxy benzoate]
5.30 to 6.00 | CCOc1cc(C(=O)OC)c(C2CC2)cc1CN1CCN(C(=O)Nc2ccc(C(=O)NC[C@H](O)[C@@H](O)[C@H](O)[C@H](O)CO)cc2)CC1 [compound 93, methyl 2-cyclopropyl-5-ethoxy-4-[[4-[[4-[[(2S,3R,4R,5R)-2,3,4,5,6-pentahydroxyhexyl]carbamoyl]phenyl]carbamoyl]piperazin-1-yl]methyl]benzoate]
< 5.30 | CCOc1cc(C(=O)OC)c(C2CC2)cc1CN1CCN(C(=O)Cc2ccc(C(=O)NC[C@H](O)[C@@H](O)[C@H](O)[C@H](O)CO)cc2)CC1 [Example 97, methyl 2-cyclopropyl-5-ethoxy-4-((4-(2-(4-(((2S,3R,4R,5R)-2,3,4,5,6-pentahydroxyhexyl)carbamoyl)phenyl)acetyl)piperazin-1-yl)methyl)benzoate]
≥ 7.00 | CCOc1cc(-c2ccc(F)cc2)c(C2CC2)cc1CN1CCC2(CC1)CN(c1ccc(C(=O)NCCS(=O)(=O)O)cc1)C(=O)N2 [Example 71, 2-(4-(8-((2-cyclopropyl-5-ethoxy-4′-fluoro-[1,1′-biphenyl]-4-yl)methyl)-2-oxo-1,3,8-triazaspiro[4.5]decan-3-yl)benzamido)ethane-1-sulfonic acid]
≥ 7.00 | CCOc1cc(-c2ccc(F)cc2)c(C2CC2)cc1CN1CCC2(CC1)CN(c1ccc(C(=O)NCCCNC(N)=O)cc1)C(=O)O2 [Example 62, 4-(8-((2-cyclopropyl-5-ethoxy-4′-fluoro-[1,1′-biphenyl]-4-yl)methyl)-2-oxo-1-oxa-3,8-diazaspiro[4.5]decan-3-yl)-N-(3-ureidopropyl)benzamide]
< 5.30 | CCOc1cc(C(=O)OC)c(C2CC2)cc1CN1CCC2(CC1)CC(=O)N(c1ccc(CC(=O)NCCNC(=O)NC(CO)(CO)CO)cc1)C2 [Example 14, methyl 2-cyclopropyl-4-((2-(4-(2-((2-(3-(1,3-dihydroxy-2-(hydroxymethyl)propan-2-yl)ureido)ethyl)amino)-2-oxoethyl)phenyl)-3-oxo-2,8-diazaspiro[4.5]decan-8-yl)methyl)-5-ethoxy benzoate]
6.00 to 7.00 | CCOc1cc(C(=O)OC)c(C2CC2)cc1CN1CCC2(CC1)CC(=O)N(c1ccc(C(=O)NCCCS(N)(=O)=O)cc1)C2 [Example 44, methyl 2-cyclopropyl-5-ethoxy-4-((3-oxo-2-(4-((3-sulfamoylpropyl)carbamoyl)phenyl)-2,8-diazaspiro[4.5]decan-8-yl)methyl)benzoate]
6.00 to 7.00 | CCOc1cc(CN2CCC3(CC2)CN(c2ccc(C(=O)NCCC[N+](C)(C)C)cc2)C(=O)O3)cc(OCC)c1-c1ccc(F)cc1 [Example 6, 3-(4-(8-((2,6-diethoxy-4′-fluoro-[1,1′-biphenyl]-4-yl)methyl)-2-oxo-1-oxa-3,8-diazaspiro[4.5]decan-3-yl)benzamido)-N,N,N-trimethylpropan-1-aminium]
